One data set has as its system BJ fibroblasts. In words: Albumin and α-fetoprotein gene expression by qPCR in transfected fibroblasts. It counts as cell-based, human. The conditions noted are these: Example 13, 5 consecutive days, 6-well plate. The source says: RPL19 (Hs02338565_gH) was used for endogenous control assays. The ViiA 7 Real Time PCR System (Applied Biosystems) was used to perform and analyze qPCRs. If gene expression was not detectable in a sample, an artificial cycle threshold of 41 was applied to allow for comparison.
Reprogramming experiments were generally performed as follows. Initial reprogramming experiments used mRNA pools containing six different mRNAs encoding the following six transcription factors: FOXA1, FOXA2, FOXA3, HNF4A, HNF1A, and GATA4. This six transcription factor pool containing mRNAs encoding FOXA1, FOXA2, FOXA3, HNF4A, HNF1A, and GATA4 is herein referred to as 6TF. The 6TF mRNA mixture used in these studies contained the mRNA molecules at a molar ratio of 1:1:1:1:1:1. […]
Albumin (ALB) and α-fetoprotein (AFP) are genes expressed almost exclusively in cells of hepatocyte lineage. […] After 5 days and 9 days, gene expression levels for albumin and α-fetoprotein in the cells were determined by qPCR using methods as described above.
BJ fibroblasts were transfected once daily with 6TF mRNA mixture (See Table 6 above for 6TF mRNA cocktail composition) or each of the 5TF mRNA mixtures (described above and shown in Table 6) for 5 consecutive days, as described above. After 5 days, gene expression levels for albumin and AFP in the cells were determined by qPCR using methods as described above. […]

In a further data set the test system is TLR3. The data set is described as follows: TLR3 activation on 11TF transfection with or without Poly I:C. The class given is cell-based, human. The conditions noted are these: daily transfection and/or daily Poly I:C supplementation. The protocol:
(See Lee et al., (2012) Cell 151:547-558.) Experiments were performed to examine whether 11TF mRNA mixture could activate TLR3 and to determine whether further activation would increase hepatic induction.
Experiments were performed to test whether daily supplementation with Poly I:C, a known TLR3 agonist, accompanying 11TF mRNA mixture transfection would further increase expression of albumin and AFP.

The record followed here is US20150376570A1, “METHODS AND COMPOSITIONS FOR PRODUCING INDUCED HEPATOCYTES” (GENENTECH, INC., priority 2012, published 2015).

For the substance HNF1A: mRNA encoding only HNF1A, in the data set on BJ fibroblasts, the “AFP gene expression vs non-transfected control fibroblasts” value is reported as “slightly above” and the “albumin gene expression vs non-transfected control fibroblasts” value was “slightly above”. Poly I:C: in the data set with TLR3, the “TLR3 expression above control” value was “did not activate TLR3”.
